Assay [1] concerns Klebsiella pneumoniae. In words: Induction of morphological changes in Klebsiella pneumoniae assessed as cell contraction at 2 times MIC measured after 120 mins by SEM analysis. The class given is functional, organism-based.
The test system of assay [2] is Klebsiella pneumoniae. Briefly: Induction of morphological changes in Klebsiella pneumoniae assessed as cell adhesion at 2 times MIC measured after 120 mins by SEM analysis. The class given is functional, organism-based.
A further assay deals with Lipopolysaccharide (LPS). In words: Binding affinity to LPS (unknown origin) assessed as reduction in bacterial mortality at 2 times MIC preincubated with LPS for 1 hr followed by bacteria addition for 24 hrs by spectrophotometric analysis.
In assay [3] the test system is Klebsiella pneumoniae. Briefly: Induction of morphological changes in Klebsiella pneumoniae assessed as cell adhesion at 2 times MIC measured after 30 mins by SEM analysis. The class given is functional, organism-based.
In assay [4] the test system is Klebsiella pneumoniae. In words: Antibacterial activity against Klebsiella pneumoniae ATCC 700603 infected in male BALB/c mouse lung infection model assessed as reduction in number of inflammatory cells at 5 mg/kg, ip measured after 6 to 36 hrs. Particulars: time 6-36 hrs. The class given is functional, organism-based.
Assay [5] has as its system Cell membrane. Briefly: Induction of cytoplasmic membrane depolarization in Staphylococcus aureus assessed as increase in fluorescence intensity at 0.5 to 4 times MIC measured for 10 mins by DiSC3-5 dye based fluorescence assay. The class given is subcellular.
Assay [6] concerns Klebsiella pneumoniae. In words: Induction of morphological changes in Klebsiella pneumoniae assessed as cell contraction at 2 times MIC measured after 30 mins by SEM analysis. The class given is functional, organism-based.
For assay [7], the system named is Staphylococcus aureus. Briefly: Antibacterial activity against Staphylococcus aureus 25923 at sub-MIC concentration measured after 15 passages. The class given is functional, organism-based.
The subject of assay [8] is Klebsiella pneumoniae. In words: Induction of morphological changes in Klebsiella pneumoniae assessed as cell aggregation at 2 times MIC measured after 30 mins by SEM analysis. The class given is functional, organism-based.
The test system of assay [9] is Escherichia coli. Briefly: Induction of cell membrane disruption in Escherichia coli assessed as PI uptake at 2 times MIC measured after 120 mins by PI staining based flow cytometry analysis (Rvb =<10 %). The class given is functional. Particulars: 2 h.
Assay [10] relates to Klebsiella pneumoniae. Briefly: Induction of morphological changes in Klebsiella pneumoniae assessed as cell aggregation at 2 times MIC measured after 120 mins by SEM analysis. The class given is functional, organism-based.
The subject of assay [11] is Staphylococcus aureus. In words: Antibacterial activity against methicillin resistant Staphylococcus aureus infected in male BALB/c mouse model of skin wound infection assessed as reduction in wound area at 2 mg/kg, ip measured after 6 to 36 hrs postinfection. The class given is functional, organism-based. Conditions: time 6-36 hrs.
Assay [12] concerns Escherichia coli. Briefly: Induction of cell membrane disruption in Escherichia coli assessed as PI uptake at 4 times MIC measured after 120 mins by PI staining based flow cytometry analysis. The class given is functional, organism-based.
Assay [13] deals with Cell membrane. Briefly: Induction of inner membrane permeabilization in Escherichia coli at 0.5 to 4 times MIC measured for 135 mins by absorbance based analysis.
Assay [14] has as its system Escherichia coli. Briefly: Antibacterial activity against Escherichia coli 25922 at sub-MIC concentration measured after 15 passages in presence of rifampin. The class given is functional, organism-based.
In assay [15] the test system is Staphylococcus aureus. In words: Antibacterial activity against Staphylococcus aureus 25923 at sub-MIC concentration measured after 15 passages in presence of rifampin. The class given is functional, organism-based.
The test system of assay [16] is Cell membrane. Briefly: Induction of outer membrane permeabilization in Escherichia coli assessed as increase in fluorescence intensity at 0.5 times MIC measured for 10 mins by fluorescence based NPN uptake assay.
The test system of assay [17] is Cell membrane. In words: Induction of outer membrane permeabilization in Escherichia coli assessed as increase in fluorescence intensity measured for 10 mins by fluorescence based NPN uptake assay.
Assay [18] deals with Escherichia coli. Briefly: Antibacterial activity against Escherichia coli 850 assessed as reduction in bacterial growth incubated for 18 to 24 hrs by broth microdilution method. The class given is functional. Particulars: time 18-24 hrs. In general terms: Broth dilution looks for growth in wells or tubes with falling amounts of substance.
For assay [19], the system named is Staphylococcus aureus. In words: Antibacterial activity against methicillin-resistant Staphylococcus aureus 75 assessed as reduction in bacterial growth incubated for 18 to 24 hrs by broth microdilution method. The class given is functional. Conditions: time 18-24 hrs.
Assay [20] has as its system Pseudomonas aeruginosa. In words: Antibacterial activity against Pseudomonas aeruginosa 124 assessed as reduction in bacterial growth incubated for 18 to 24 hrs by broth microdilution method. The class given is functional. Particulars: time 18-24 hrs.
Assay [21] relates to Staphylococcus aureus. In words: Antibacterial activity against Staphylococcus aureus 125 assessed as reduction in bacterial growth incubated for 18 to 24 hrs by broth microdilution method. The class given is functional. Conditions: time 18-24 hrs.
Assay [22] deals with Staphylococcus aureus. In words: Drug resistance, ratio of MIC for Staphylococcus aureus 25923 after 4 passages exposure to MIC for Staphylococcus aureus 25923 during first exposure. The class given is functional.
The subject of assay [23] is Acinetobacter baumannii. In words: Antibacterial activity against Acinetobacter baumannii 5444 assessed as reduction in bacterial growth incubated for 18 to 24 hrs by broth microdilution method. The class given is functional. Conditions: time 18-24 hrs.
For assay [24], the system named is Escherichia coli. In words: Drug resistance, ratio of MIC for Escherichia coli 25922 after 7 passages exposure to MIC for Escherichia coli 25922 during first exposure. The class given is functional.
Assay [25] concerns Staphylococcus aureus. Briefly: Antibacterial activity against Staphylococcus aureus 794 assessed as reduction in bacterial growth incubated for 18 to 24 hrs by broth microdilution method. The class given is functional. Conditions: time 18-24 hrs.
Assay [26] concerns Staphylococcus aureus. In words: Antibacterial activity against methicillin-resistant Staphylococcus aureus ATCC 33591 assessed as reduction in bacterial growth incubated for 18 to 24 hrs by broth microdilution method. Conditions: time 18-24 hrs. The class given is functional.
Assay [27] relates to Staphylococcus aureus. In words: Antibacterial activity against Staphylococcus aureus 113 assessed as reduction in bacterial growth incubated for 18 to 24 hrs by broth microdilution method. Conditions: time 18-24 hrs. The class given is functional.
Assay [28] has as its system Klebsiella pneumoniae. In words: Antibacterial activity against Klebsiella pneumoniae ATCC 700603 assessed as reduction in bacterial growth incubated for 18 to 24 hrs by broth microdilution method. The class given is functional. Particulars: time 18-24 hrs.
The test system of assay [29] is Escherichia coli. In words: Drug resistance, ratio of MIC for Escherichia coli 25922 after 15 passages exposure to MIC for Escherichia coli 25922 during first exposure. The class given is functional.
For assay [30], the system named is Acinetobacter baumannii. Briefly: Antibacterial activity against Acinetobacter baumannii ATCC 19606 assessed as reduction in bacterial growth incubated for 18 to 24 hrs by broth microdilution method. The class given is functional. Conditions: time 18-24 hrs.
For assay [31], the system named is Escherichia coli. Briefly: Antibacterial activity against Escherichia coli ATCC 25922 assessed as reduction in bacterial growth incubated for 18 to 24 hrs by broth microdilution method. The class given is functional. Particulars: time 18-24 hrs.
Assay [32] has as its system Pseudomonas aeruginosa. Briefly: Antibacterial activity against Pseudomonas aeruginosa ATCC 27853 assessed as reduction in bacterial growth incubated for 18 to 24 hrs by broth microdilution method. Conditions: time 18-24 hrs. The class given is functional.
The test system of assay [33] is Pseudomonas aeruginosa. In words: Antibacterial activity against Pseudomonas aeruginosa 6434N assessed as reduction in bacterial growth incubated for 18 to 24 hrs by broth microdilution method. The class given is functional. Particulars: time 18-24 hrs.
The subject of assay [34] is Staphylococcus epidermidis. In words: Antibacterial activity against Staphylococcus epidermidis ATCC 12228 assessed as reduction in bacterial growth incubated for 18 to 24 hrs by broth microdilution method. The class given is functional. Conditions: time 18-24 hrs.
For assay [35], the system named is Staphylococcus aureus. Briefly: Antibacterial activity against Staphylococcus aureus ATCC 25923 assessed as reduction in bacterial growth incubated for 18 to 24 hrs by broth microdilution method. The class given is functional. Particulars: time 18-24 hrs.
In the next assay the test system is Enterococcus faecalis. In words: Antibacterial activity against Enterococcus faecalis ATCC 29212 assessed as reduction in bacterial growth incubated for 18 to 24 hrs by broth microdilution method. The class given is functional. Particulars: time 18-24 hrs.
Assay [36] deals with Staphylococcus aureus. In words: Drug resistance, ratio of MIC for Staphylococcus aureus 25923 after 15 passages exposure to MIC for Staphylococcus aureus 25923 during first exposure. The class given is functional.
Assay [37] has as its system Acinetobacter baumannii. Briefly: Antibacterial activity against Acinetobacter baumannii 92359 assessed as reduction in bacterial growth incubated for 18 to 24 hrs by broth microdilution method. The class given is functional. Conditions: time 18-24 hrs.
The subject of assay [38] is Escherichia coli. In words: Antibacterial activity against Escherichia coli 780 assessed as reduction in bacterial growth incubated for 18 to 24 hrs by broth microdilution method. Conditions: time 18-24 hrs. The class given is functional.
A further assay deals with Bacillus subtilis. In words: Antibacterial activity against Bacillus subtilis ATCC 23857 assessed as reduction in bacterial growth incubated for 18 to 24 hrs by broth microdilution method. Particulars: time 18-24 hrs. The class given is functional.

Converted amounts (≈) assume the structure as drawn. The source made the active and inactive calls. No cut-off for these calls is given here.

With `CC(C)CCCCC(=O)N[C@@H](CCN)C(=O)N[C@H](C(=O)N[C@@H](CCN)C(=O)N[C@H]1CCNC(=O)[C@H]([C@@H](C)O)NC(=O)[C@H](CCN)NC(=O)[C@H](CCN)NC(=O)[C@H](CC(C)C)NC(=O)[C@@H](Cc2ccccc2)NC(=O)[C@@H](CCN)NC1=O)[C@@H](C)O.CC[C@H](C)CCCCC(=O)N[C@@H](CCN)C(=O)N[C@H](C(=O)N[C@@H](CCN)C(=O)N[C@H]1CCNC(=O)[C@H]([C@@H](C)O)NC(=O)[C@H](CCN)NC(=O)[C@H](CCN)NC(=O)[C@H](CC(C)C)NC(=O)[C@@H](Cc2ccccc2)NC(=O)[C@@H](CCN)NC1=O)[C@@H](C)O`, the result in the assay on Klebsiella pneumoniae [1], in the assay with Klebsiella pneumoniae [2], in the assay with Lipopolysaccharide (LPS), in the assay with Klebsiella pneumoniae [3], in the assay on Klebsiella pneumoniae [6] and in the assay on Klebsiella pneumoniae [8] was Active. Further, the result in the assay on Klebsiella pneumoniae [10], with Staphylococcus aureus [11], in the assay on Escherichia coli [14] and in the assay with Staphylococcus aureus [15] was Active. In addition, the result with Klebsiella pneumoniae [4], in the assay on Staphylococcus aureus [7] and with Escherichia coli [12] was inactive. In addition, the Activity entry in the assay on Cell membrane [5] was “Weak_effect”; with Escherichia coli [9], greater than 20%; in the assay with Cell membrane [13] it was “Active; Compound Showed Lower Efficacy Than Positive Control 0.1% Tritionx 100”; with Cell membrane [16] it was “Active; Compound Showed Slightly Inferior Activity Than Compound D8”; in the assay with Cell membrane [17], “Dose-dependent-effect”.

One may read the MIC as the least concentration at which growth counts as inhibited. Take `CO[C@H]1/C=C/O[C@@]2(C)Oc3c(C)c(O)c4c(O)c(c(/C=N/N5CCN(C)CC5)c(O)c4c3C2=O)NC(=O)/C(C)=C\C=C\[C@H](C)[C@H](O)[C@@H](C)[C@@H](O)[C@@H](C)[C@H](OC(C)=O)[C@@H]1C` [RIFAMPIN]: the MIC with Escherichia coli [18] was determined as 16 µM (≈ 13.2 µg/mL); with Staphylococcus aureus [19], 128 µM (≈ 105 µg/mL); in the assay on Pseudomonas aeruginosa [20] it was 128 µM (≈ 105 µg/mL); in the assay on Staphylococcus aureus [21] it was 1 µM (≈ 0.823 µg/mL); in the assay with Acinetobacter baumannii [23] it was 16 µM (≈ 13.2 µg/mL); in the assay with Staphylococcus aureus [25], 4 µM (≈ 3.29 µg/mL). Moreover, the MIC was determined as 128 µM (≈ 105 µg/mL) with Staphylococcus aureus [26]; 1 µM (≈ 0.823 µg/mL) in the assay on Staphylococcus aureus [27]; 16 µM (≈ 13.2 µg/mL) in the assay with Klebsiella pneumoniae [28]; 1 µM (≈ 0.823 µg/mL) in the assay with Acinetobacter baumannii [30]; 8 µM (≈ 6.58 µg/mL) in the assay with Escherichia coli [31]; 32 µM (≈ 26.3 µg/mL) in the assay with Pseudomonas aeruginosa [32]. Further, the minimum inhibitory concentration (MIC) amounted to 16 µM (≈ 13.2 µg/mL) in the assay with Pseudomonas aeruginosa [33]; 1 µM (≈ 0.823 µg/mL) in [34]; 1 µM (≈ 0.823 µg/mL) in the assay on Staphylococcus aureus [35]; 1 µM (≈ 0.823 µg/mL) in the assay on Enterococcus faecalis; 16 µM (≈ 13.2 µg/mL) with Acinetobacter baumannii [37]; 16 µM (≈ 13.2 µg/mL) with Escherichia coli [38]. For the same molecule, the minimal inhibitory concentration (MIC) in the assay with Bacillus subtilis amounted to 1 µM (≈ 0.823 µg/mL). Also, the “fold change (FC)” value in the assay on Staphylococcus aureus [22] is on record as 8; in the assay on Escherichia coli [24] it was 8; with Escherichia coli [29], 64; in the assay on Staphylococcus aureus [36] it was 512.

For the origin of these results see ChEMBL document CHEMBL6114980, “Single or double lipid-modified ultra-short antimicrobial peptides for treating infections caused by resistant bacteria” (Eur J Med Chem, 2025).
